The values that follow come from US11713331B2, “Benzene 1,4-bis(bisphosphonic acid)-based metal complexes, method of synthesis and applications thereof” (priority 2020, dated 2023).

The conditions of assay [1]: after 7 days, binding curve before reported; cited from earlier work.
The test system of assay [2] is normal osteoblast-like hFOB 1.19 cell line. The assay is classed as cell-based. Conditions: 0-200 μM. The procedure: (§1) Cell Culture Methods. Media with DMEM, 5% FBS, and 1% Pen-Strep were used to incubate MDA-MB-231 cells at 37° C. with 5% CO2. The osteoblast hFOB 1.19 cell line was incubated at 34° C., 5% CO2, in 1:1 DMEM:F-12 supplemented with 0.3 mg/mL G418, and 10% FBS. Cell passages were performed weekly at 80.0% confluency. Media exchanges were carried out twice every 7 d.
(§2) Cell treatment. […] Cells (MDA-MB-231, hFOB 1.19) were seeded in 96 well plates at a density of 2.5×10^5 cells/mL. The 96 well plates were incubated at 37° C. with 5% CO2 for 24 h. Three 96 well plates were prepared per time point (24, 48, and 72 h). […] Cells were incubated at 37° C. and 5% CO2 for 24, 48, and 72 h. Control groups were treated with media (MDA-MB-231 with DMEM, 1% Pen-Strep) and (hFOB 1.19 with 1:1 DMEM:F-12, 0.3 mg/mL G418). Cell proliferation was determined after each point time of treatment. A 10% AlamarBlue® solution was previously prepared using PBS. The media was removed from all 96 well plates and 100 μL of AlamarBlue® solution was added. The 96 well plates were incubated for 4 h (MDA-MB-231 at 37° C., 5% CO2) and (hFOB 1.19 at 34° C., 5% CO2). The fluorescence was measured at 560 nm of excitation and lambda max 590 nm of emission. […] The experiments for the % RCL were performed employing the same conditions previously mentioned for the IC50 determination. All experiments were accomplished in triplicate. The GraphPad Prism 8 vs 8.3.1 was utilized to generate the IC50 curves and to plot the % RCL graphs.
(§3) Furthermore, the cytotoxicity of these materials was also achieved using the osteoblast-like hFOB 1.19 cell line, within work, these immortalized human cells were used to simulate the human bone microenvironment (not cancerous cells). […] Control groups were treated with media (DMEM, 1% Pen-Strep, MDA-MB-231) and (1:1 DMEM:F12, 0.3 mg/mL G418, hFOB 1.19), respectively. AlamarBlue® assay was employed to determine cell proliferation after each time point.
(§4) Cell Culture Methods—Media with DMEM, 5% FBS, and 1% Pen-Strep were used to incubate MDA-MB-231 cells at 37° C. with 5% CO2. The osteoblast hFOB 1.19 cell line was incubated at 34° C., 5% CO2 in 1:1 DMEM:F-12 supplemented with 0.3 mg/mL G418, and 10% FBS. Cell passages were performed weekly at 80.0% confluency. Media exchanges were carried out twice every 7 d.
(§5) Cell seeding—Both cells were seeded in 96 well plates at a density of 2.5×10^5 cells/mL. The 96 well plates were incubated at 37° C. (MDA-MB-231) and 34° C. […] Experiments were performed in triplicate.
(§6) (MDA-MB-231) and 34° C. […] All experiments were accomplished in triplicate.

For assay [3], the system named is human breast cancer MDA-MB-231 cell line. The class given is cell-based. The settings on record: 0-200 μM. The procedure:
as §1, §2, §3, §4, §5, §6

The nature of assay [4]: Binding assay to hydroxyapatite (HA). The settings on record: 0.5 mg/mL, 20 mg HA, PBS. The method, then:
Hydroxyapatite (HA) treatment. […] The experiment was carried out for 0-12 days, in stirring at 120 rpm. […] The supernatant was centrifuged for 8 min (500 rcf) and the absorbance was measured at 231 nm. Solid samples were characterized by SEM-EDS, TGA, and PXRD.
The experiment was carried out for 0-12 days, in constant stirring at 120 rpm. […] The supernatant was centrifuged for 8 min (500 rcf) and the absorbance was measured at 231 nm. Solid samples were characterized by SEM-EDS and PXRD.

pIC50: −log10 of the molar value. Like-named read-outs stand apart in the source and are kept apart here.

As for `NCCCC(O)(P(=O)(O)O)P(=O)(O)O` [ALEN, Alendronic acid], the “% Binding to HA” value in assay [1] was above 95%.

For “benzene 1,4-bis(bisphosphonic acid) [BBPA]”, the negative-log IC50 (pIC50) (in general, the IC50 on a negative log10 scale, so that one unit is a factor of ten) in assay [2] (hFOB 1.19, 24 h of treatment) is below 3.70; in assay [2] (hFOB 1.19, 48 h of treatment), below 3.70; in assay [2] (hFOB 1.19, 72 h of treatment), below 3.70; in assay [3] (MDA-MB-231, 24 h of treatment) it was below 3.70; in assay [3] (MDA-MB-231, 48 h of treatment), below 3.70; in assay [3] (MDA-MB-231, 72 h of treatment), below 3.70. Also, the “% Binding to HA” value in assay [4] (0 d) turned out to be 0%; in assay [4] (1 d), 1%; in assay [4] (2 d) it was 39%; in assay [4] (3 d), 54%; in assay [4] (4 d), 74%.
